Results on three compounds are retold here after paper PMC11277004, “Di- and Triselenoesters—Promising Drug Candidates for the Future Therapy of Triple-Negative Breast Cancer” (International Journal of Molecular Sciences, 2024).

Bounds are passed on as bounds.

Data set [1] has as its system human breast cancer cells MCF-7 and MDA-MB-231. More on the design: method as in PMID 36077839. As to conditions: 3 µM; cited from earlier work.
Data set [2] concerns MCF-7 breast cancer cells. Briefly: MTT cytotoxicity test, MCF-7. Type of data set: cell-based, human. The following applies: Homo sapiens, MCF7; MCF-7, 24 h incubation; read-out: IC50, cell viability (MTT). The method, then:
(§1) MCF-7 and MDA-MB-231 human breast cancer cell lines, as well as MCF-10A normal human breast epithelial cells, were acquired from the American Type Culture Collection (ATCC, Manassas, VA, USA). The characteristics of the breast cancer cell lines used in this study are compared in Table 1. MCF-7 and MDA-MB-231 cells were cultured in Dulbecco’s modified Eagle’s medium (Gibco, San Diego, CA, USA), while MCF-10A cells were cultured in the mammary epithelial cell growth medium with the following supplements: BPE, hEGF, insulin, hydrocortisone, GA-1000 (Lonza, Basel, Switzerland). All media were complemented by 10% of fetal bovine serum (FBS) and 1% of the following antibiotics: penicillin and streptomycin (both Gibco, San Diego, CA, USA). The cells were maintained in an incubator that provides the optimal growth conditions for the cell culture: 5% CO2, 37 °C, and humidity in a range of 90–95%. The cells were cultured in 100 mm plates (Sarstedt, Newton, NC, USA). Subsequently, after obtaining a subconfluent cell culture, the cells were detached with 0.05% trypsin with 0.02% EDTA (Gibco, San Diego, CA, USA). […] In this study, cells that obtained 80% confluence were used. The MTT assay was used to determine the cytotoxic effects of the compounds in the study on MCF-7 and MDA-MB-231 breast cancer cells as well as MCF-10A normal human breast epithelial cells based on Carmichael’s method. […] After this time, the medium was removed, and the cell monolayer was washed with warm phosphate-buffered saline (PBS) without calcium and magnesium. In the next step, PBS and MTT solution in PBS (5 mg/mL) were added to each well to obtain a final MTT concentration of 0.5 mg/mL, and then the cells were incubated for 4 h (37 °C temperature, 5% CO2, 90–95% humidity). After the incubation period, the contents of each well were removed, 1 mL of DMSO was added to dissolve the formazan, and then the plate with the added DMSO was mixed for 5–10 min on a microplate shaker (Boeco, Hamburg, Germany). Then, 10 µL of Sorensen’s glycine buffer (a solution of 0.1 M glycine and 0.1 M sodium chloride adjusted to pH 10.5 with 0.1 M sodium hydroxide) was added. The absorbance of the obtained solution was immediately measured at a wavelength of λ = 570 nm using a Thermo Scientific Evolution 201 UV–VIS spectrophotometer (Thermo Fisher Scientific, Waltham, MA, USA). The absorbance result obtained in the control cells (without the addition of the tested compounds) was taken as 100%, while the viability of cells incubated with the tested compounds was presented as a percentage of the control value.

The subject of data set [3] is MDA-MB-231 triple-negative breast cancer cells. Briefly: MTT cytotoxicity test, MDA-MB-231. The class given is cell-based, human. How it is done: as §1
On the technique in general: Formazan colour is commonly taken as a measure of viable cells.

For data set [4], the system named is MCF-10A normal human breast epithelial cells. Briefly: MTT cytotoxicity test, MCF-10A. The class given is cell-based. The following applies: Homo sapiens, 24 h incubation, read-out: IC50, cell viability (MTT). How it is done:
as §1

Data set [5] has as its system MCF-7 breast cancer cells. Briefly: DNA biosynthesis assay ([3H]-thymidine incorporation), MCF-7. Type of data set: cell-based, human. As to conditions: Homo sapiens, MCF7, 24 h, read-out: IC50, DNA biosynthesis. The method, then:
(§2) The study of the antiproliferative properties (intensity of [^3H]-thymidine incorporation into cell DNA) of the tested derivatives against tested cell lines (MCF-7, MDA-MB-231, MCF-10A) was performed after 24 h incubation with varied concentrations of the tested compounds in the medium (0.5–5 µM) in 6-well plates (baseline seeding density: 5 × 10^5 cells/well). After 24 h the medium was removed, the cells were washed with PBS (Corning, Kennebunk, ME, USA), and a fresh medium was added. After that, the cells were treated with 0.5 µCi of tritium-labeled thymidine (specific activity 7 Ci/mmol) by incubating them with this compound for 4 h under the same conditions as the cell culture. In the first step, the medium was removed, and the cell monolayer was washed twice with 1 mL of 0.05 M Tris-HCl buffer pH 7.4 containing 0.11 M NaCl. To denature proteins, the cells were washed twice with 1 mL of 5% trichloroacetic acid (TCA) solution. Finally, cell lysis was performed by adding 1 mL of 0.1 M sodium hydroxide (NaOH) solution containing 1% sodium dodecyl sulfate (SDS) to each well. After five minutes, the obtained cell lysates were transferred to scintillation vials with 2 mL of scintillation fluid added to them beforehand. Radioactivity was measured using the Scintillation Counter 1900 TR, TRI-CARB (Packard, Perkin Elmer, Inc., San Jose, CA, USA). The intensity of DNA biosynthesis in the analyzed cells was expressed in terms of dpm/well. The result of the radioactivity measurement in the control cells (without the addition of tested compounds) was taken as 100%, while the values of cells incubated with the tested compounds were presented as a percentage of the control value.
For orientation: Uptake of a labelled nucleoside into DNA is a usual measure of proliferation.

The test system of data set [6] is MDA-MB-231 triple-negative breast cancer cells. Briefly: DNA biosynthesis assay ([3H]-thymidine incorporation), MDA-MB-231. The class given is cell-based, human. As to conditions: Homo sapiens, MDA-MB-231, 24 h, read-out: IC50, DNA biosynthesis. How it is done: as §2
Data set [7] relates to MCF-10A normal human breast epithelial cells. Briefly: DNA biosynthesis assay ([3H]-thymidine incorporation), MCF-10A. The class given is cell-based. The following applies: Homo sapiens, 24 h, read-out: IC50, DNA biosynthesis. The method, then:
as §2

The subject of data set [8] is MCF-7, MDA-MB-231 and MCF-10A cells. Briefly: Viability (MTT) and DNA biosynthesis, summary statements over the tested cell lines. The class given is cell-based, human. The following applies: DNA biosynthesis, vs EDAG-1 and EDAG-8. How it is done: The MTT assay was used to determine the cytotoxic effects of the compounds in the study on MCF-7 and MDA-MB-231 breast cancer cells as well as MCF-10A normal human breast epithelial cells based on Carmichael’s method. All cultured cell lines were treated with varied concentrations of the tested compounds in the medium (0.5–5 µM) and incubated for 24 h in an incubator providing optimal conditions for cell culture growth (37 °C temperature, 5% CO2, and 90–95% humidity) in 6-well plates (baseline seeding density: 5 × 10^5 cells/well). After this time, the medium was removed, and the cell monolayer was washed with warm phosphate-buffered saline (PBS) without calcium and magnesium. In the next step, PBS and MTT solution in PBS (5 mg/mL) were added to each well to obtain a final MTT concentration of 0.5 mg/mL, and then the cells were incubated for 4 h (37 °C temperature, 5% CO2, 90–95% humidity). After the incubation period, the contents of each well were removed, 1 mL of DMSO was added to dissolve the formazan, and then the plate with the added DMSO was mixed for 5–10 min on a microplate shaker (Boeco, Hamburg, Germany). Then, 10 µL of Sorensen’s glycine buffer (a solution of 0.1 M glycine and 0.1 M sodium chloride adjusted to pH 10.5 with 0.1 M sodium hydroxide) was added. The absorbance of the obtained solution was immediately measured at a wavelength of λ = 570 nm using a Thermo Scientific Evolution 201 UV–VIS spectrophotometer (Thermo Fisher Scientific, Waltham, MA, USA). The absorbance result obtained in the control cells (without the addition of the tested compounds) was taken as 100%, while the viability of cells incubated with the tested compounds was presented as a percentage of the control value.
The study of the antiproliferative properties (intensity of [^3H]-thymidine incorporation into cell DNA) of the tested derivatives against tested cell lines (MCF-7, MDA-MB-231, MCF-10A) was performed after 24 h incubation with varied concentrations of the tested compounds in the medium (0.5–5 µM) in 6-well plates (baseline seeding density: 5 × 10^5 cells/well). After 24 h the medium was removed, the cells were washed with PBS (Corning, Kennebunk, ME, USA), and a fresh medium was added. […] Radioactivity was measured using the Scintillation Counter 1900 TR, TRI-CARB (Packard, Perkin Elmer, Inc., San Jose, CA, USA). The intensity of DNA biosynthesis in the analyzed cells was expressed in terms of dpm/well. The result of the radioactivity measurement in the control cells (without the addition of tested compounds) was taken as 100%, while the values of cells incubated with the tested compounds were presented as a percentage of the control value.

For the compound `CC(=O)C[Se]C(=O)c1ccc(Cl)cc1` [EDA-71], the “cells in which the apoptotic process was triggered” value in data set [1] was “over 50%”.

The IC50 is the concentration that gives 50% inhibition. As for `N#CC[Se]C(=O)c1ccc(C(=O)[Se]CC#N)cc1` [EDAG-7, Se,Se-bis(cyanomethyl) benzene-1,4-bis(carboselenoate)], the IC50 in data set [2] was 3.15 ± 0.21 µM; in data set [3] (Homo sapiens, MDA-MB-231, 24 h incubation, read-out: IC50, cell viability (MTT)) it was greater than 5 µM; in data set [4], 4.64 ± 0.24 µM; in data set [5], 1.81 ± 0.11 µM; in data set [6], 2.04 ± 0.16 µM; in data set [7], 2.33 ± 0.02 µM. In addition, the “fold weaker antiproliferative activity than the most active derivatives” value in data set [8] is reported as 2–3 fold.

With `N#CC[Se]C(=O)c1cc(C(=O)[Se]CC#N)cc(C(=O)[Se]CC#N)c1` [EDAG-10, Se,Se,Se-tris-(cyanomethyl) benzene-1,3,5-tris-(carboxyselenoate)], the IC50 in data set [2] is 2.6 ± 0.03 µM; in data set [4], 4.18 ± 0.29 µM; in data set [5], 1.95 ± 0.11 µM; in data set [6], 1.56 ± 0.08 µM; in data set [7] it was 1.6 ± 0.05 µM. Moreover, the “fold weaker cytotoxic activity than the most active compounds” value in data set [3] (MDA-MB-231, MTT, vs EDAG-8/EDAG-1) was roughly 4 fold. For the same compound, the “fold weaker antiproliferative activity than the most active derivatives” value in data set [8] is recorded as 2–3 fold.
